Experimental data reported in patent US20150258101A1 (Proximagen Limited, priority 2014, published 2015).

molecular target: T1, purified recombinantly expressed human SSAO (Homo sapiens, UniProt Q16853); test: SSAO enzyme inhibition assay (benzylamine substrate; hydrogen peroxide/HRP-coupled or 14C aldehyde detection); type: biochemical; conditions: SSAO inhibitory activity, RT
T1 construct: made in house
T1 sequence (Q16853 1-763): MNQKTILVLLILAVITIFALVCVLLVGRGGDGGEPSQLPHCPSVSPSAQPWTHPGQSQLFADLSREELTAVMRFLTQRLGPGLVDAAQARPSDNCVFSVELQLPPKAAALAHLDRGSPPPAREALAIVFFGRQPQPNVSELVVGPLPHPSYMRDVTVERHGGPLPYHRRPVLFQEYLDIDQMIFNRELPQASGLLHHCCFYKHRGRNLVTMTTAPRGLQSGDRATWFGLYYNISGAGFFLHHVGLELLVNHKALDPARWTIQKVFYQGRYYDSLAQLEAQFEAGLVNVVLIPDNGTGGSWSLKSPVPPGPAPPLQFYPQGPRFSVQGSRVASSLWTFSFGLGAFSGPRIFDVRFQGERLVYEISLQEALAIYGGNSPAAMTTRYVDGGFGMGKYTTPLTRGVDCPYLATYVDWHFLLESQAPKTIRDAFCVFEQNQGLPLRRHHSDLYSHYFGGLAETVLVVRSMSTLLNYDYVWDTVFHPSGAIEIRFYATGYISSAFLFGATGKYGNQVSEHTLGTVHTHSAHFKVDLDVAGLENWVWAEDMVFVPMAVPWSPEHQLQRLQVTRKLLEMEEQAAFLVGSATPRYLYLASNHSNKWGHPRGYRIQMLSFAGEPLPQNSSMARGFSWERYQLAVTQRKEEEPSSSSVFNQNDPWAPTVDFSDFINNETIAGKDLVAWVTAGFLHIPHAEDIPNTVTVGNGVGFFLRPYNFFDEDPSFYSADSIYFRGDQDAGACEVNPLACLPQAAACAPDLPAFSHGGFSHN
Outline: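 IC50 values came from a four-parameter logistic fit of % signal decrease versus DMSO control, with no-enzyme background subtracted. Two read-outs were used with human recombinant SSAO after ~15 min compound pre-incubation at RT. In the H2O2/HRP-Amplex read-out, enzyme was 1 ug/ml and benzylamine 100 uM (pH 7.4 phosphate), with resorufin fluorescence followed 1-2 h. In the 14C-benzaldehyde read-out (PBS), enzyme was 10 ug/ml and benzylamine 40 uM, run 1 h then acid-stopped.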

IC50 [nM] | SMILES
< 50 | Cc1ccc(-n2c(-c3ccc(N4C[C@@H](C)O[C@@H](C)C4)nc3)nc3ccncc32)nc1 [Example 104, (2R,6S)-2,6-Dimethyl-4-{5-[3-(5-methylpyridin-2-yl)-3H-imidazo[4,5-c]pyridin-2-yl]pyridin-2-yl}morpholine]
< 50 | Cn1c(-c2cc3ccncc3n2-c2ccc(Cl)cc2)cccc1=O [Example 145, 6-[1-(4-Chlorophenyl)-1H-pyrrolo[2,3-c]pyridin-2-yl]-1-methyl-1,2-dihydropyridin-2-one]
50 to 200 | CN1CCN(c2ccc(-c3nc4ccncc4n3-c3ccc(F)cc3)cn2)CC1=O [Example 106, 4-{5-[3-(4-Fluorophenyl)-3H-imidazo[4,5-c]pyridin-2-yl]pyridin-2-yl}-1-methylpiperazin-2-one]
50 to 200 | Clc1ccc(-n2c(-c3cncc(Cl)c3)cc3ccncc32)cc1 [Example 150, 3-Chloro-5-[1-(4-chlorophenyl)-1H-pyrrolo[2,3-c]pyridin-2-yl]pyridine]
50 to 200 | Clc1ccc(-n2c(-c3cnc(NC4CCOCC4)cn3)nc3ccncc32)cc1 [Example 7, 5-[3-(4-Chlorophenyl)-3H-imidazo[4,5-c]pyridin-2-yl]-N-(oxan-4-yl)pyrazin-2-amine]
50 to 200 | Brc1ccc(-n2c(-c3cnc(N4CCOCC4)nc3)nc3ccncc32)cc1 [Example 59, 4-{5-[3-(4-Bromophenyl)-3H-imidazo[4,5-c]pyridin-2-yl]pyrimidin-2-yl}morpholine]
50 to 200 | Cc1ccc(-n2c(-c3cnc(N4CCOCC4)nc3)cc3ccncc32)cc1 [Example 130, 4-{5-[1-(4-Methylphenyl)-1H-pyrrolo[2,3-c]pyridin-2-yl]pyrimidin-2-yl}morpholine]
200 to 1200 | CN1CCN(C(=O)c2ccc(-c3cc4ccncc4n3-c3ccc(Cl)cc3)cc2)CC1 [Example 125, 1-({4-[1-(4-Chlorophenyl)-1H-pyrrolo[2,3-c]pyridin-2-yl]phenyl}carbonyl)-4-methylpiperazine]
200 to 1200 | O=C(NC1CC1)c1ccc(-c2nc3ccncc3n2-c2ccc(Cl)cc2)cn1 [Example 14, 5-[3-(4-Chlorophenyl)-3H-imidazo[4,5-c]pyridin-2-yl]-N-cyclopropylpyridine-2-carboxamide]
50 to 200 | O=c1cc(-c2cc3ccncc3n2-c2ccc(Cl)cc2)cn[nH]1 [Example 146, 5-[1-(4-Chlorophenyl)-1H-pyrrolo[2,3-c]pyridin-2-yl]-2,3-dihydropyridazin-3-one]
< 50 | COCCCNc1ncc(-c2nc3ccncc3n2-c2ccc(C)cc2)cn1 [Example 37, N-(3-Methoxypropyl)-5-[3-(4-methylphenyl)-3H-imidazo [4,5-c]pyridin-2-yl]pyrimidin-2-amine]
200 to 1200 | Nc1ncc(-c2nc3ccncc3n2-c2ccc(Cl)cc2)cn1 [Example 31, 5-[3-(4-Chlorophenyl)-3H-imidazo[4,5-c]pyridin-2-yl] pyrimidin-2-amine]
200 to 1200 | Fc1cc(-n2c(-c3cnc(N4CCOCC4)nc3)nc3ccncc32)ccc1Cl [Example 74, 4-{5-[3-(4-Chloro-3-fluorophenyl)-3H-imidazo[4,5-c]pyridin-2-yl]pyrimidin-2-yl}morpholine]
200 to 1200 | O=C(c1ccc(-c2nc3ccncc3n2-c2ccc(Cl)cc2)cn1)N1CCOCC1 [Example 6, 4-({5-[3-(4-Chlorophenyl)-3H-imidazo[4,5-c]pyridin-2-yl]pyridin-2-yl}carbonyl) morpholine]
< 50 | Clc1ccc(-n2c(-c3cnc(NCC4CC4)nc3)cc3ccncc32)cc1 [Example 149, 5-[1-(4-Chlorophenyl)-1H-pyrrolo[2,3-c]pyridin-2-yl]-N-(cyclopropylmethyl)pyrimidin-2-amine]
